Test results: paper PMC6749218, “Structure-Based Pharmacophore Design and Virtual Screening for Novel Tubulin Inhibitors with Potential Anticancer Activity” (Molecules, 2019)

Test system: T1, tubulin
T1 construct: gene TUBB2B
Assay: turbidimetric tubulin polymerization assay ([…] nm)
Format: biochemical
Conditions: tubulin 10 µM

| Compound | IC50 |
| --- | --- |
| COc1ccc(OC)c(/C=C/C(=O)c2ccc(OC)cc2OC)c1 [compound 1, hit 1] | 3.7 ± 0.5 µM |
